Literature values in patent US20230287067A1, “HUMAN I[…] OF HEMO AND HHLA2 HUMAN ENDOGENOUS RETROVIRUSES (HERVS)” (priority 2020, published 2023).

Assays:
HLA-A2 = conditions: known property of control peptide
HLA-A24 = conditions: known property of control peptide

## WLLPGTSTV [agonist peptide derived from the tumor-associated antigen Brachyury]
HLA-A2
  binding to HLA-A2: bind strongly

## SYLIRALTL [peptide derived from influenza]
HLA-A24
  binding to HLA-A24: binds strongly
HLA-A2
  binding to HLA-A2: not to HLA-A2
